Data published in patent US20250381198A1 (Melt Pharmaceuticals, Inc., priority 2024, published 2025).
Marks after values point to notes of the source that are not given here.

System: subjects undergoing cataract extraction with lens replacement (CELR)
Assay: Phase 3: adverse events (safety analysis set)
Type: in vivo, human
Procedure: The safety of MELT-300 was performed at baseline, in the course of surgery (intraoperatively), postoperatively on Day 1, and on Day 3+1 day post dose of study medication. Safety assessment included monitoring of AEs, vital sign measurements, and physical examinations.
An overview of adverse events (AEs) is provided in TABLE 57 for the safety analysis set. Reported data includes an overall summary of the presence of any AEs, treatment-emergent ocular adverse events (TEAEs), treatment-related TEAEs, TEAE of special interest (TEAESI), serious AEs (SEAs), and treatment-emergent SAEs (TESAE). Categories were not mutually exclusive. Results include the number of subjects, percent of subjects, and number of events in each category, respectively. A summary of treatment-emergence adverse events (TEAEs) by location, system organ class, and preferred term for the safety analysis set is provided in TABLE 58. A summary of treatment-related treatment-emergent adverse events (TRTEAEs) by system organ class, and preferred term for the safety analysis set is provided in TABLE 59. No SAEs (overall), TESAEs, or treatment-related TESAEs were observed. No SAEs resulting in death or discontinuation of the study was observed.

[1] = Location: Ocular, Safety analysis set
[2] = Location: Overall, Safety Analysis Set
[3] = Location: Overall, Safety analysis set

Cc1ncc2n1-c1ccc(Cl)cc1C(c1ccccc1F)=NC2 [Midazolam, 8-chloro-6-(2-fluorophenyl)-1-methyl-4H-imidazo[1,5-a][1,4]benzodiazepine]
Any Unexpected Treatment-Related TEAE, subjects [1]: 0 n (%)
TEAESI: Abuse-related AEs, events [1]: 0 #
TEAESI: Abuse-related AEs, subjects [1]: 0 n (%)
TEAESI: Cardiovascular AEs, events [1]: 0 #
TEAESI: Cardiovascular AEs, subjects [1]: 1 (1.1) n (%)
TEAESI: Ketamine emergence delirium, events [1]: 0 #
TEAESI: Ketamine emergence delirium, subjects [1]: 0 n (%)
TEAESI: Neurocognitive AEs, events [1]: 0 #
TEAESI: Neurocognitive AEs, subjects [1]: 0 n (%)
TEAESI: Oral/pharyngeal AEs, events [1]: 0 #
TEAESI: Oral/pharyngeal AEs, subjects [1]: 0 n (%)
TEAESI: Oversedation requiring the use of flumazenil, events [1]: 0 #
TEAESI: Oversedation requiring the use of flumazenil, subjects [1]: 0 n (%)
TEAESI: Respiratory AEs, events [1]: 0 #
TEAESI: Respiratory AEs, subjects [1]: 1 (1.1) n (%)
TEAE: Abnormal sensation in eye [2]: 0 n
TEAE: Amnesia [2]: 0 n
TEAE: Anxiety [2]: 0 n
TEAE: Back pain [2]: 0 n
TEAE: Balance disorder [2]: 0 n
TEAE: Blood pressure increased [2]: 0 n
TEAE: Blood pressure systolic increased [2]: 0 n
TEAE: Bradycardia [2]: 0 n
TEAE: Corneal abrasion [2]: 0 n
TEAE: Corneal oedema [2]: 0 n
TEAE: Cough [2]: 0 n
TEAE: Dental local anaesthesia [2]: 0 n
TEAE: Diplopia [2]: 0 n
TEAE: Dizziness [2]: 0 n
TEAE: Fatigue [2]: 0 n
TEAE: Gastrointestinal disorders (System Organ Class) [2]: 0 n
TEAE: Glare [2]: 0 n
TEAE: Hiccups [2]: 0 n
TEAE: Hypertension [2]: 0 n
TEAE: Hypoaesthesia oral [2]: 0 n
TEAE: Infections and infestations (System Organ Class) [2]: 0 n
TEAE: Injury, poisoning and procedural complications (System Organ Class) [2]: 0 n
TEAE: Instillation site pain [2]: 0 n
TEAE: Investigations (System Organ Class) [2]: 0 n
TEAE: Lacrimation increased [2]: 0 n
TEAE: Lethargy [2]: 0 n
TEAE: Musculoskeletal and connective tissue disorders (System Organ Class) [2]: 0 n
TEAE: Myalgia [2]: 0 n
TEAE: Nasal Discomfort [2]: 0 n
TEAE: Nausea [2]: 0 n
TEAE: Neck pain [2]: 0 n
TEAE: Ocular discomfort [2]: 0 n
TEAE: Oxygen saturation decreased [2]: 0 n
TEAE: Photophobia [2]: 0 n
TEAE: Photopsia [2]: 0 n
TEAE: Post procedural hypotension [2]: 0 n
TEAE: Procedural nausea [2]: 0 n
TEAE: Procedural pain [2]: 0 n
TEAE: Procedural vomiting [2]: 0 n
TEAE: Product after taste [2]: 0 n
TEAE: Product issues (System Organ Class) [2]: 0 n
TEAE: Psychiatric disorders (System Organ Class) [2]: 0 n
TEAE: Pyrexia [2]: 0 n
TEAE: Sinusitis [2]: 0 n
TEAE: Surgical and medical procedures (System Organ Class) [2]: 0 n
TEAE: Taste disorder [2]: 0 n
TEAE: Vascular disorders (System Organ Class) [2]: 0 n
TEAE: Visual field defect [2]: 0 n
TEAE: Visual impairment [2]: 0 n
Any AE, events [3]: 24 #
Any AE, subjects [3]: 16 (18.0) n (%)
Any Grade 3+ TEAE, events [3]: 0 #
Any Grade 3+ TEAE, subjects [3]: 0 n (%)
Any SAE, events [3]: 0 #
Any SAE, subjects [3]: 0 n (%)
Any TEAE Resulting in Death, events [3]: 0 #
Any TEAE Resulting in Death, subjects [3]: 0 n (%)
Any TEAE Resulting in Study Drug Interruption, events [3]: 0 #
Any TEAE Resulting in Study Drug Interruption, subjects [3]: 0 n (%)
Any TEAE Resulting in Study Drug Withdrawal, events [3]: 0 #
Any TEAE Resulting in Study Drug Withdrawal, subjects [3]: 0 n (%)
Any TEAE, events [3]: 20 #
Any TEAE, subjects [3]: 13 (14.6) n (%)
Any TEAESI, events [3]: 2 #
Any TEAESI, subjects [3]: 2 (2.2) n (%)
Any TESAE, events [3]: 0 #
Any TESAE, subjects [3]: 0 n (%)
Any Treatment-Related TEAE Resulting in Death, events [3]: 0 #
Any Treatment-Related TEAE Resulting in Death, subjects [3]: 0 n (%)
Any Treatment-Related TEAE, events [3]: 4 #
Any Treatment-Related TEAE, subjects [3]: 2 (2.2) n (%)
Any Treatment-Related TEAESI, events [3]: 1 #
Any Treatment-Related TEAESI, subjects [3]: 1 (1.1) n (%)
Any Treatment-Related TESAE, events [3]: 0 #
Any Treatment-Related TESAE, subjects [3]: 0 n (%)
Any Unexpected TEAE, events [3]: 9 #
Any Unexpected TEAE, subjects [3]: 6 (6.7) n (%)
Any Unexpected Treatment-Related TEAE, events [3]: 0 #
Any Unexpected Treatment-Related TEAE, subjects [3]: 0 n (%)
TEAESI: Abuse-related AEs, events [3]: 0 #
TEAESI: Abuse-related AEs, subjects [3]: 0 n (%)
TEAESI: Cardiovascular AEs, events [3]: 1 #
TEAESI: Cardiovascular AEs, subjects [3]: 1 (1.1) n (%)
TEAESI: Ketamine emergence delirium, events [3]: 0 #
TEAESI: Ketamine emergence delirium, subjects [3]: 0 n (%)
TEAESI: Neurocognitive AEs, events [3]: 0 #
TEAESI: Neurocognitive AEs, subjects [3]: 0 n (%)
TEAESI: Oral/pharyngeal AEs, events [3]: 0 #
TEAESI: Oral/pharyngeal AEs, subjects [3]: 0 n (%)
TEAESI: Oversedation requiring the use of flumazenil, events [3]: 0 #
TEAESI: Oversedation requiring the use of flumazenil, subjects [3]: 0 n (%)
TEAESI: Respiratory AEs, events [3]: 1 #
TEAESI: Respiratory AEs, subjects [3]: 1 (1.1) n (%)
Treatment-related TEAE: Anxiety (Safety Analysis Set): 0 n
Treatment-related TEAE: Blood pressure increased (Safety Analysis Set): 0 n
Treatment-related TEAE: Bradycardia (Safety Analysis Set): 0 n
Treatment-related TEAE: Cardiac disorders (System Organ Class) (Safety Analysis Set): 0 n
Treatment-related TEAE: Dental local anaesthesia (Safety Analysis Set): 0 n
Treatment-related TEAE: Dizziness (Safety Analysis Set): 0 n
Treatment-related TEAE: Eye disorders (System Organ Class) (Safety Analysis Set): 0 n
Treatment-related TEAE: Hiccups (Safety Analysis Set): 0 n
Treatment-related TEAE: Injury, poisoning and procedural complications (System Organ Class) (Safety Analysis Set): 0 n
Treatment-related TEAE: Investigations (System Organ Class) (Safety Analysis Set): 0 n
Treatment-related TEAE: Lethargy (Safety Analysis Set): 0 n
Treatment-related TEAE: Oxygen saturation decreased (Safety Analysis Set): 0 n
Treatment-related TEAE: Procedural nausea (Safety Analysis Set): 0 n
Treatment-related TEAE: Procedural vomiting (Safety Analysis Set): 0 n
Treatment-related TEAE: Product after taste (Safety Analysis Set): 0 n
Treatment-related TEAE: Product issues (System Organ Class) (Safety Analysis Set): 0 n
Treatment-related TEAE: Psychiatric disorders (System Organ Class) (Safety Analysis Set): 0 n
Treatment-related TEAE: Surgical and medical procedures (System Organ Class) (Safety Analysis Set): 0 n
Treatment-related TEAE: Tachycardia (Safety Analysis Set): 0 n
Treatment-related TEAE: Visual impairment (Safety Analysis Set): 0 n
